Measurements published in patent US4572911A, “Hexahydroindolinzine compounds, pharmaceutical compositions and methods and intermediates” (priority 1984, dated 1986).
Where a name gives a salt, the structure may show the parent alone. Read-outs that look alike come from different tables or passages of the source.

How the values were obtained:
gastric acid secretion = experiment: Acute Gastric Fistula Rat Test (inhibition of gastric acid secretion, Total Acid Output); type: in vivo, Female Sprague-Dawley rats; settings: 1 h, @ 20 mg/kg i.d. (intraduodenal), collection at one hour, read-out: % Inhibition of TAO (Total Acid Output)
Experimental: The compounds of the invention are useful for inhibition of gastric acid secretion as measured by the following test. Female Sprague-Dawley rats are fasted twenty-four hours before testing and are given water ad libidum while being kept in individual cages. On the day of testing, the rats are weighed and are selected so that the rats in each test weigh within a range of ±20 grams.
Surgery is carried out under light ether anesthesia. As soon as the rat is anesthetized its teeth are removed and a mid-line incision is made on the abdomen about 11/2 inches in length and the stomach and duodenum are exposed. If at this point the stomach is filled with food or fecal material, the rat is not used. If the condition of the stomach is acceptable, a purse string stitch is placed on the fundic portion of the stomach with a suture, taking care not to pierce any blood vessels in the area. A small nick is then made into the stomach in the center of the purse string, and a cannula, consisting of a small vinyl tube with a flange on one end, is put into the stomach, and the purse string stitch is closed tightly around the flange. The test compound is administered intraduodonally (i.d.) immediately after surgery in a volume of 0.5 ml/100 grams rat. Control rats receive the test vehicle, 0.5% aqueous methyl cellulose.
After the surgery and after administration of the test compound, the abdominal wall and skin are closed simultaneously with three or four 10 mm wound clips and a collecting tube is placed on the cannula. Each rat is then placed in a box in which a longitudinal slit has been made to allow the cannula to hang freely and to allow the rat to move about unencumbered. After the rat has been allowed to stabilize for thirty minutes, the collection tube on the cannula is discarded and replaced with a clean tube to receive the gastric juice. Collections are made at one hour.
The sample of gastric contents collected is drained into a centrifuge tube and centrifuged to pack down the sediment. The volume is read and a 1 ml aliquot of the supernatant is put into a beaker containing 10 ml distilled water and is titrated to pH 7 using 0.01 N sodium hydroxide. Results are determined for Volume, Titratable Acid and Total Acid Output, where Volume equals total ml of gastric juice minus sediment; Titratable Acid (meq/1) equals amount of 0.01 N sodium hydroxide needed to titrate the acid to pH 7; and Total Acid Output equals Titratable Acid times Volume. Results are reported as % inhibition of Total Acid Output (TAO) for a dose of 20 mg/kg i.d. of the compound of formula (I) or (II). Particularly useful are compounds having significant inhibition of TAO at a dose of 20 mg/kg.

[1] = system: depressant effects of tetrabenazine (TBZ); experiment: tetrabenazine (TBZ) antagonism assay for antidepressant agents; type: in vivo; settings: Mus musculus, ip, 0.5 h, mice, test compound i.p. 30 minutes prior to 32 mg/kg i.p. TBZ
Experimental: This is the "classical" tetrabenazine antagonism assay described in U.S. Pat. No. 3,787,577. Mice are injected with a test compound 30 minutes prior to the injection of 32 mg/kg i.p. of TBZ, a drug which decreases normal exploratory activity and induces ptosis. After 30 minutes, the mice are tested for two parameters: the presence of normal exploratory activity (EA) and reversal of ptosis (Pt). A control group of mice is given only 32 mg/kg i.p. of TBZ.

[2] = normal exploratory activity, read-out: TBZ ED50 EA (exploratory activity)
[3] = reversal of ptosis, read-out: TBZ ED50 Pt (reversal of ptosis)

In the case of `Cn1ccc2c1[C@H](c1ccccc1)CN1CCC[C@@H]21` (relative stereo) [17 (1st), 4,5,7,8,9,9a-alpha-Hexahydro-3-methyl-4-alpha-phenyl-3H-pyrrolo[2,3-g]indolizine], the inhibition in vivo at 20 mg/kg (gastric acid secretion) is reported as 90%.

`Cn1ccc2c1[C@H](c1ccccc1)CN1CCC[C@H]21` (relative stereo) [17 (2nd), 4,5,7,8,9,9a-beta-Hexahydro-3-methyl-4-alpha-phenyl-3H-pyrrolo[2,3-g]indolizine] was tested, and the inhibition in vivo at 20 mg/kg (gastric acid secretion) was 88%, the ED50 [1, 2] was 2.4 mg/kg and the ED50 [1, 3] was ~0.75 mg/kg.

In the case of `c1ccc([C@@H]2CN3CCC[C@H]3c3ccsc32)cc1` (relative stereo) [19 (1st), 4,5,7,8,9,9a-alpha-Hexahydro-4-alpha-phenylthieno[2,3-g]indolizine], the inhibition in vivo at 20 mg/kg (gastric acid secretion) is reported as 98%.

Compound `c1ccc([C@@H]2CN3CCC[C@@H]3c3ccsc32)cc1` (relative stereo) [19 (2nd), 4,5,7,8,9,9a-beta-hexahydro-4-alpha-phenylthieno[2,3-g]indolizine] has an inhibition in vivo at 20 mg/kg (gastric acid secretion) of 98%.

Work on `c1ccc([C@@H]2CN3CCC[C@H]3c3sccc32)cc1` (relative stereo) [19 (3rd), 4,5,7,8,9,9a-alpha-hexahydro-4-alpha-phenylthieno[3,2-g]indolizine] yielded an inhibition in vivo at 20 mg/kg (gastric acid secretion) of 88%.

For `c1csc([C@@H]2CN3CCC[C@H]3c3ccsc32)c1` (relative stereo) [20 (1st), 4,5,7,8,9,9a-alpha-Hexahydro-4-alpha-(2-thienyl)thieno[2,3-g]indolizine], the inhibition in vivo at 20 mg/kg (gastric acid secretion) was 47%.

With `c1csc([C@@H]2CN3CCC[C@@H]3c3ccsc32)c1` (relative stereo) [20 (2nd), 4,5,7,8,9,9a-beta-hexahydro-4-alpha-(2-thienyl)thieno[2,3-g]indolizine] the inhibition in vivo at 20 mg/kg (gastric acid secretion) was 41%, the ED50 [1, 2] was ~24 mg/kg and the ED50 [1, 3] was ~30 mg/kg.

For `C[C@@]12CCCN1C[C@@H](c1ccccc1)c1sccc12` (relative stereo) [Example 18, 4,5,7,8,9,9a-Hexahydro-9a-alpha-methyl-4-alpha-phenylthieno-[2,3-g]indolizine perchlorate (1:1)], the inhibition in vivo at 20 mg/kg (gastric acid secretion) was 100%.

`CC12CCCN1CCc1c2ccn1Cc1ccccc1Cl` (stereo not shown) [Example 4, 3-(2-Chlorobenzyl)-4,5,7,8,9,9a-hexahydro-9a-methyl-3H-pyrrolo[2,3-g]indolizine] gave an inhibition in vivo at 20 mg/kg (gastric acid secretion) of 78%.

Work on `CC12CCCN1CCc1[nH]ccc12` (stereo not shown) [Example 5, 4,5,7,8,9,9a-Hexahydro-9a-methyl-3H-pyrrolo[2,3-g]-indolizine E-(2-)butenedioate(1:1)] yielded an inhibition in vivo at 20 mg/kg (gastric acid secretion) of 66%.

With `Cn1ccc2c1CCN1CCCC21c1ccccc1` (stereo not shown) [Example 7, 4,5,7,8,9,9a-Hexahydro-3-methyl-9a-phenyl-3H-pyrrolo[2,3-g]indolizine] the inhibition in vivo at 20 mg/kg (gastric acid secretion) was 86%.

Work on `CC12CCCN1CCc1c2ccn1-c1ccccc1` (stereo not shown) [Example 10, 4,5,7,8,9,9a-Hexahydro-9a-methyl-3-phenyl-3H-pyrrolo[2,3-g]indolizine] yielded an inhibition in vivo at 20 mg/kg (gastric acid secretion) of 82%.

`Cn1ccc2c1CCN1C(c3ccc(Cl)cc3)CCC21C` (stereo not shown) [Example 12, 7-(4-Chlorophenyl)-4,5,7,8,9,9a-hexahydro-3,9a-dimethyl-3H-pyrrolo[2,3-g]indolizine (E)-2-butenedioate (1:7) hydrate (1:2)] gave an inhibition in vivo at 20 mg/kg (gastric acid secretion) of 37%.

With `Cn1ccc2c1CCN1CCCC21C` (stereo not shown) [Example 13, 3,9a-Dimethyl-4,5,7,8,9,9a-hexahydro-3H-pyrrolo[2,3-]indolizine hydrochloride] the inhibition in vivo at 20 mg/kg (gastric acid secretion) was 74%.

`Cn1ccc2c1C1(C)CCCN1CC2` (stereo not shown) [Example 16, 1,9a-Dimethyl-4,5,7,8,9,9a-hexahydro-1H-pyrrolo[3,2-g]indolizine cyclohexanesulfamate] was tested, and the inhibition in vivo at 20 mg/kg (gastric acid secretion) was 86%.
